Each structure is given as a SMILES string.

`Cl.O=C1CCN(CCC2CCCCC2)C(=O)N1Cc1ccncc1` yielded a melting point of 64 to 74.5 °C.

For the compound `CCCCCN(CCC12CC3CC(CC(C3)C1)C2)C(=O)NCCCCc1ccncc1` [Compound No. 1-87, 1-[2-(1-Adamantyl)ethyl]-1-pentyl-3-[4-(4-pyridyl)butyl]urea], the melting point lay within 74.1 to 78.1 °C. Next, `CCNCCN(CCC12CC3CC(CC(C3)C1)C2)C(=O)NCCCc1ccncc1` [Compound No. 20-1, 1-[2-(1-Adamantyl)ethyl]-1-[2-(N-ethylamino)ethyl]-3-[3-(4-pyridyl)propyl]urea]: 96.8 to 104.9 °C; `CN(CCC12CC3CC(CC(C3)C1)C2)C(=O)NCCCc1ccncc1` [Compound No. 1-40, 1-[2-(1-Adamantyl)ethyl]-1-methyl-3-[3-(4-pyridyl)propyl)urea]: 99 to 109 °C; `C=CCN(CCC12CC3CC(CC(C3)C1)C2)C(=O)NCCCc1ccncc1` [Compound No. 1-23, 1-[2-(1-Adamantyl)ethyl]-1-allyl-3-[3-(4-pyridyl)propyl]urea]: 99 to 102 °C. To `CCCCCN(CCC12CC3CC(CC(C3)C1)C2)C(=O)NCCCc1ccccn1` [Compound No. 1-83, 1-[2-(1-Adamantyl)ethyl]-1-pentyl-3-[3-(2-pyridyl)propyl]urea] belongs 84.4 to 85.7 °C. As for `Cl.O=C(NCCCc1ccncc1)N(CCC12CC3CC(CC(C3)C1)C2)CCC12CC3CC(CC(C3)C1)C2`, the melting point lay in the range of 120 to 122.5 °C. Next, `CCCCCN(CCC12CC3CC(CC(C3)C1)C2)C(=O)NCCc1ccncc1` [Compound No. 1-80, 1-[2-(1-Adamantyl)ethyl]-1-pentyl-3-[2-(4-pyridyl)ethyl]urea]: 107 to 118 °C; `CCCCCN(CCC12CC3CC(CC(C3)C1)C2)C(=O)NCC(Cc1ccccc1)Cc1ccncc1` (stereo not drawn) [Compound No. 1-109, 1-[2-(1-Adamantyl)ethyl]-3-[2-benzyl-3-(4-pyridyl)propyl]-1-pentylurea]: 111 to 116 °C. To `O=C(NCCCc1ccncc1)N(CCCC12CC3CC(CC(C3)C1)C2)CC(F)(F)F` [Compound No. 1-123, 1-[3-(1-Adamantyl)propyl]-3-[3-(4-pyridyl)propyl]-1-(2,2,2-trifluoroethyl)urea] belongs 88.9 to 90 °C; to `O=C(NCCCc1ccncc1)N(CCC12CC3CC(CC(C3)C1)C2)CC(F)(F)F` [Compound No. 1-114, 1-[2-(1-Adamantyl)ethyl]-3-[3-(4-pyridyl)propyl]-1-(2,2,2-trifluoroethyl)urea], 106.2 to 107.3 °C. `CCCCCN(CCc1ccccc1)C(=O)NCC(C)Cc1ccncc1` (stereo not drawn) [Compound No. 1-115, 3-[2-Methyl-3-(4-pyridyl)propyl]-1-pentyl-1-phenethylurea] came in with a melting point of 49 to 50 °C. Turning to `CC(C)N(CCC12CC3CC(CC(C3)C1)C2)C(=O)NCCCc1ccncc1` [Compound No. 1-68, 1-[2-(1-Adamantyl)ethyl]-1-isopropyl-3-[3-(4-pyridyl)propyl]urea], the melting point lay in the range of 132 to 134 °C.

In turn, `O=C(NCCCc1ccncc1)N(O)CCC12CC3CC(CC(C3)C1)C2` [Compound No. 12-1, 1-[2-(1-Adamantyl)ethyl]-1-hydroxy-3-[3-(4-pyridyl)propyl]urea] had a melting point of 101 to 102.59 °C. To `CC(C)(C)OC(=O)NCCN(CCC12CC3CC(CC(C3)C1)C2)C(=O)NCCCc1cc[n+](Cc2ccccc2)cc1.[Br-]` belongs 97 °C.

`CCCCCCN(CCC12CC3CC(CC(C3)C1)C2)C(=O)NCCCc1ccncc1` [Compound No. 1-29, 1-[2-(1-Adamantyl)ethyl]-1-hexyl-3-[3-(4-pyridyl)propyl]urea] gave a melting point of 119.5 to 121.5 °C. To `CCCCN(CCC12CC3CC(CC(C3)C1)C2)C(=O)NCCCc1ccncc1` [Compound No. 1-57, 1-[2-(1-Adamantyl)ethyl]-1-butyl-3-[3-(4-pyridyl)propyl]urea] belongs 109.5 to 118 °C; to `C=C(C)CN(CCC12CC3CC(CC(C3)C1)C2)C(=O)NCCCc1ccncc1` [Compound No. 1-33, 1-[2-(1-Adamantyl)ethyl]-1-(2-methyl-2-propenyl)-3-[3-(4-pyridyl)propyl]urea], 108 to 109 °C. Consider `O=C(NCCCc1ccncc1)N(C1CCCCC1)C1CCCCC1` [Compound No. 1-61, 1,1-Dicyclohexyl-3-[3-(4-pyridyl)propyl]urea], for which the melting point was 143 to 145.5 °C. To `O=C(NCCCc1ccncc1)N(CCC12CC3CC(CC(C3)C1)C2)Cc1cccs1` [Compound No. 1-27, 1-[2-(1-Adamantyl)ethyl]-3-[3-(4-pyridyl)propyl]-1-(2-thienyl)methylurea] belongs 142.5 to 144.5 °C. Next, `O=C(NCCCc1ccncc1)N(CCC12CC3CC(CC(C3)C1)C2)Cc1ccccc1` [Compound No. 1-43, 1-[2-(1-Adamantyl)ethyl]-1-benzyl-3-[3-(4-pyridyl)propyl]urea]: 130.5 to 135 °C; `CC(C)(C)OC(=O)CCN(CCC12CC3CC(CC(C3)C1)C2)C(=O)NCCCc1ccncc1` [Compound No. 1-69, 1-[2-(1-Adamantyl)ethyl]-1-[2-(t-butoxycarbonyl)ethyl]-3-[3-(4-pyridyl)propyl]urea]: 124.5 to 127 °C. On to `CC(=O)NN(CCC12CC3CC(CC(C3)C1)C2)C(=O)NCCCc1ccncc1` [Compound No. 10-1, 1-Acetylamino-1-[2-(1-adamantyl)ethyl]-3-[3-(4-pyridyl)propyl]urea], for which the melting point lay within 140 to 146 °C. Take `CCCCCN(CCC12CC3CC(CC(C3)C1)C2)C(=O)NCCC(=O)c1ccncc1` [Compound No. 31-1, 1-[2-(1-Adamantyl)ethyl]-3-[3-oxo-3-(4-pyridyl)propyl]-1-pentylurea]: the melting point was 103.5 to 104 °C.

`CC(C)(C)OC(=O)NCCN(CCC12CC3CC(CC(C3)C1)C2)C(=O)NCCCc1ccncc1` [Compound No. 10-8, 1-[2-(1-Adamantyl)ethyl]-1-[2-[N-(t-butoxycarbonyl)amino]ethyl]-3-[3-(4-pyridyl)propyl]urea] came in with a melting point of 158 to 160.5 °C.

Compound `CCCCCN(CCC12CC3CC(CC(C3)C1)C2)C(=O)NCC(C)(C)Cc1ccncc1` [Compound No. 1-135, 1-[2-(1-Adamantyl)ethyl]-3-[2,2-dimethyl-3-(4-pyridyl)propyl]-1-pentylurea] showed a melting point of 82.5 to 84.9 °C. As to `CCCCCN(CCC12CC3CC(CC(C3)C1)C2)C(=O)NCCc1cccnc1` [Compound No. 1-76, 1-[2-(1-Adamantyl)ethyl]-1-pentyl-3-[2-(3-pyridyl)ethyl]urea], the melting point lay in the range of 112.5 to 114.5 °C. To `CC(C)CCN(CCC(C)C)C(=O)NCCCc1ccncc1.Cl` belongs 120.5 to 131.7 °C. To `O=C(NCCCc1ccncc1)N(CC=Cc1ccccc1)CCC12CC3CC(CC(C3)C1)C2` [Compound No. 1-34, 1-[2-(1-Adamantyl)ethyl]-1-cinnamyl-3-[3-(4-pyridyl)propyl]urea] belongs 130 to 134.5 °C; to `CCCCCN(CCC12CC3CC(CC(C3)C1)C2)C(=O)CNCCc1ccncc1.Cl.Cl`, 133.7 to 137 °C.

In the case of `O=C(NCCCc1ccncc1)N(CCC12CC3CC(CC(C3)C1)C2)CC1CC1` [Compound No. 1-22, 1-[2-(1-Adamantyl)ethyl]-1-cyclopropylmethyl-3-[3-(4-pyridyl)propyl]urea], the melting point lay within 123 to 125 °C. To `CCCCCN(CCC12CC3CC(CC(C3)C1)C2)C(=O)NCCCc1ccnc2ccccc12` [Compound No. 1-91, 1-[2-(1-Adamantyl)ethyl]-1-pentyl-3-[3-(4-quinolyl)propyl]urea] belongs 80.2 to 102 °C; to `CCN(CCCC12CC3CC(CC(C3)C1)C2)C(=O)NCCCc1ccncc1` [Compound No. 1-130, 1-[3-(1-Adamantyl)propyl]-1-ethyl-3-[3-(4-pyridyl)propyl]urea], 97.5 to 98.2 °C; to `O=C(NCCCc1ccncc1)N(CCC12CC3CC(CC(C3)C1)C2)Cc1ccco1` [Compound No. 1-42, 1-[2-(1-Adamantyl)ethyl]-1-furfuryl-3-[3-(4-pyridyl)propyl]urea], 128 to 130 °C. To `Cl.O=C1CCN(CCCc2ccncc2)C(=O)N1CCC12CC3CC(CC(C3)C1)C2` belongs 170 °C. Compound `CCCCCNC(=O)N(CCCc1ccncc1)CCC12CC3CC(CC(C3)C1)C2` [Compound No. 1-66, 1-[2-(1-Adamantyl)ethyl]-3-pentyl-1-[3-(4-pyridyl)propyl]urea] came in with a melting point of 47 to 50 °C.

Turning to `Cl.O=C1CCN(CCC23CC4CC(CC(C4)C2)C3)C(=O)N1CCCc1ccncc1`, the melting point lay within 177 to 178.5 °C. In turn, `CCCCCN(CCC12CC3CC(CC(C3)C1)C2)C(=O)NCCc1ccccn1` [Compound No. 1-75, 1-[2-(1-Adamantyl)ethyl]-1-pentyl-3-[2-(2-pyridyl)ethyl]urea] displayed a melting point of 80 to 100 °C. To `CCCN(CCCC12CC3CC(CC(C3)C1)C2)C(=O)NCc1ccncc1` [Compound No. 1-128, 1-[3-(1-Adamantyl)propyl]-1-propyl-3-(4-pyridyl)methylurea] belongs 96 to 98 °C.

A word on the melting point: it is the temperature of the solid-liquid transition.
